Results reported in ChEMBL document CHEMBL3132769, “Fragment growing to retain or alter the selectivity of anchored kinase hinge-binding fragments” (Medchemcomm, 2014).

Tests used:
[1] = biological target: RAF proto-oncogene serine/threonine-protein kinase (Homo sapiens) (UniProt P04049); experiment: Inhibition of human truncated c-Raf expressed in baculovirus assessed as substrate phosphorylation using fluorescence-labelled peptides as substrate at 0.06 uM after 90 mins by microfluidic peptide phosphorylation assay
Chain of RAF proto-oncogene serine/threonine-protein kinase (Homo sapiens) (P04049 whole entry, the tested form may be a part): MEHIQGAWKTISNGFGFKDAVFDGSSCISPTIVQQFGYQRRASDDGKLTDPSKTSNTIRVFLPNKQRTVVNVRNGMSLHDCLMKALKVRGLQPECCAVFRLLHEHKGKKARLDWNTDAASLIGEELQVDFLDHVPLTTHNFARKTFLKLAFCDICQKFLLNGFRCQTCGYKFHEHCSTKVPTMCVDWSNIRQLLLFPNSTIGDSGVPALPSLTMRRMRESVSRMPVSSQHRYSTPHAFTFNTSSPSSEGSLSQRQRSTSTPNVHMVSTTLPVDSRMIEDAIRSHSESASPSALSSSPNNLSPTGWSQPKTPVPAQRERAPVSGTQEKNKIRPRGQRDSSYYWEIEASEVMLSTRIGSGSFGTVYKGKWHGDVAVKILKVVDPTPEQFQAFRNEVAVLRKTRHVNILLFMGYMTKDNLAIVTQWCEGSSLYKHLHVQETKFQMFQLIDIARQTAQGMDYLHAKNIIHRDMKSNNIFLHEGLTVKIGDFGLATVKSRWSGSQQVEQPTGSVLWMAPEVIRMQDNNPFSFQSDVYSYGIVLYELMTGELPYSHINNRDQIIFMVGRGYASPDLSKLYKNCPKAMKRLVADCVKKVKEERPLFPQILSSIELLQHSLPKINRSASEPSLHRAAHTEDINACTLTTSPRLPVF

[2] = biological target: T1, Mitogen-activated protein kinase 13 (Homo sapiens) (UniProt O15264); experiment: Inhibition of human full length p38 delta expressed in Escherichia coli cell assessed as substrate phosphorylation using fluorescence-labelled peptides as substrate at 420 uM after 90 mins by microfluidic peptide phosphorylation assay
T1 sequence (whole entry): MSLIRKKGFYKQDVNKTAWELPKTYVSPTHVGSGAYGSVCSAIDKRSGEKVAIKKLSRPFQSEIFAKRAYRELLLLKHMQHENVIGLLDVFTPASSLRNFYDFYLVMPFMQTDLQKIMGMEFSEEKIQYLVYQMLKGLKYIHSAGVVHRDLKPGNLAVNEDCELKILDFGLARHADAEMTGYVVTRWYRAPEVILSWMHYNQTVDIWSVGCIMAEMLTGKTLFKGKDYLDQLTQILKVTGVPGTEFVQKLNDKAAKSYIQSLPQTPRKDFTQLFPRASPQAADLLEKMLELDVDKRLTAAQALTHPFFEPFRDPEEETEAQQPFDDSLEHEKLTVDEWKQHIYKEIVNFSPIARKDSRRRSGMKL

[3] = system: Tyrosine-protein kinase ABL1 (Homo sapiens), P00519 [Q252H]; experiment: Inhibition of human truncated ABL Q252H mutant expressed in baculovirus assessed as substrate phosphorylation using fluorescence-labelled peptides as substrate at 420 uM after 90 mins by microfluidic peptide phosphorylation assay
[4] = biological target: T2, Serine/threonine-protein kinase 3 (Homo sapiens) (UniProt Q13188); experiment: Inhibition of human full length MST2 expressed in baculovirus assessed as substrate phosphorylation using fluorescence-labelled peptides as substrate at 9 uM after 90 mins by microfluidic peptide phosphorylation assay
T2 sequence (whole entry): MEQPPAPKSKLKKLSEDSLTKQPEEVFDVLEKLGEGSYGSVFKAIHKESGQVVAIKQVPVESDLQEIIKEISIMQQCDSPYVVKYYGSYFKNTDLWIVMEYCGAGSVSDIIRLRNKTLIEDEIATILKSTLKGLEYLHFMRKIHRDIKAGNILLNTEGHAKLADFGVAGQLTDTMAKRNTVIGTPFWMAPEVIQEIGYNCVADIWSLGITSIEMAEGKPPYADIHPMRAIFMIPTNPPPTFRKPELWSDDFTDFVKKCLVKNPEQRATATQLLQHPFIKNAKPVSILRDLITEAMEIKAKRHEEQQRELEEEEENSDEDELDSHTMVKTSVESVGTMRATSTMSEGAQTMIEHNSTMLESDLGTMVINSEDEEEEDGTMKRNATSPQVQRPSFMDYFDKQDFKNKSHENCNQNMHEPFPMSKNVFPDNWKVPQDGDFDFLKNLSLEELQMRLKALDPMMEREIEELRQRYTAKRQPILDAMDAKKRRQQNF

[5] = biological target: T3, Inhibitor of nuclear factor kappa-B kinase subunit beta (Homo sapiens) (UniProt O14920); experiment: Inhibition of human full length IKK beta expressed in baculovirus assessed as substrate phosphorylation using fluorescence-labelled peptides as substrate at 9 uM after 90 mins by microfluidic peptide phosphorylation assay
T3 sequence (whole entry): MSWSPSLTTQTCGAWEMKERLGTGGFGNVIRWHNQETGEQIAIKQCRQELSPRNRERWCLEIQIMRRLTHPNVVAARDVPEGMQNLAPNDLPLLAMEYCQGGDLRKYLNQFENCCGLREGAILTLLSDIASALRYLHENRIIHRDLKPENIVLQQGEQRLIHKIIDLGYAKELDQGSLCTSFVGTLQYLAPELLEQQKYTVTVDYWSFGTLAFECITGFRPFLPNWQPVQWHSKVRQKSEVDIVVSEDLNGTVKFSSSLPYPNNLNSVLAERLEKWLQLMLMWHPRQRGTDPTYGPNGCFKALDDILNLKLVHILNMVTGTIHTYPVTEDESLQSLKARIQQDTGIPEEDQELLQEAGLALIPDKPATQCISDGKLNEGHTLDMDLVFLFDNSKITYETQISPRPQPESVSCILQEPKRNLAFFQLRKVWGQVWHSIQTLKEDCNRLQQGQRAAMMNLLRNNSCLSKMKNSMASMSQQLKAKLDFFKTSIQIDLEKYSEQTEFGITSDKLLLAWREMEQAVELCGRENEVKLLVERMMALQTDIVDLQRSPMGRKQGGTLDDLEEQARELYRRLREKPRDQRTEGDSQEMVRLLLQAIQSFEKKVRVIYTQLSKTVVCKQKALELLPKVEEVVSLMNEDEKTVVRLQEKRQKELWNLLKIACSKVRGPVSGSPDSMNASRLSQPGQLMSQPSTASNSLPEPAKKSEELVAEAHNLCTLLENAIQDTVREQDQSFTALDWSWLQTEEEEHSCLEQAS

[6] = biological target: Insulin-like growth factor 1 receptor (Homo sapiens) (UniProt P08069); experiment: Inhibition of human IGF1R catalytic domain expressed in baculovirus assessed as substrate phosphorylation using fluorescence-labelled peptides as substrate at 9 uM after 90 mins by microfluidic peptide phosphorylation assay
[7] = biological target: Tyrosine-protein kinase Lyn (Homo sapiens) (UniProt P07948); experiment: Inhibition of human full length LYN expressed in baculovirus assessed as substrate phosphorylation using fluorescence-labelled peptides as substrate at 70 uM after 90 mins by microfluidic peptide phosphorylation assay
Chain of Tyrosine-protein kinase Lyn (Homo sapiens) (P07948 2-512 limits assumed): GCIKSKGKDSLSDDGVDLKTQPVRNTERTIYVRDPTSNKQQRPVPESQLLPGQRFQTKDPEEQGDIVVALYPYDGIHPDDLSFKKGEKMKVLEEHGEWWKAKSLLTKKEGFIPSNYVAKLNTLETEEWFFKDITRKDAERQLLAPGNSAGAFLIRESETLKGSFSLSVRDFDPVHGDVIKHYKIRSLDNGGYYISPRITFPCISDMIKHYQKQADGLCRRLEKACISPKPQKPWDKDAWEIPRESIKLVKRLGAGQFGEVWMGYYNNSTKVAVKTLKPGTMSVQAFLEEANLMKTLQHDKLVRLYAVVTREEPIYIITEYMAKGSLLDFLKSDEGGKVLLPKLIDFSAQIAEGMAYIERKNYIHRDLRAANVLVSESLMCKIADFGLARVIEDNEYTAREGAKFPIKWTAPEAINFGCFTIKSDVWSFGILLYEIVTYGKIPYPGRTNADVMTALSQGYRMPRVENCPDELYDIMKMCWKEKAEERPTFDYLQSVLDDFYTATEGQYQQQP

[8] = biological target: Hepatocyte growth factor receptor (Homo sapiens) (UniProt P08581); experiment: Inhibition of human MET cytoplasmic domain expressed in baculovirus assessed as substrate phosphorylation using fluorescence-labelled peptides as substrate at 70 uM after 90 mins by microfluidic peptide phosphorylation assay
Chain of Hepatocyte growth factor receptor (Homo sapiens) (P08581 whole entry, the tested form may be a part): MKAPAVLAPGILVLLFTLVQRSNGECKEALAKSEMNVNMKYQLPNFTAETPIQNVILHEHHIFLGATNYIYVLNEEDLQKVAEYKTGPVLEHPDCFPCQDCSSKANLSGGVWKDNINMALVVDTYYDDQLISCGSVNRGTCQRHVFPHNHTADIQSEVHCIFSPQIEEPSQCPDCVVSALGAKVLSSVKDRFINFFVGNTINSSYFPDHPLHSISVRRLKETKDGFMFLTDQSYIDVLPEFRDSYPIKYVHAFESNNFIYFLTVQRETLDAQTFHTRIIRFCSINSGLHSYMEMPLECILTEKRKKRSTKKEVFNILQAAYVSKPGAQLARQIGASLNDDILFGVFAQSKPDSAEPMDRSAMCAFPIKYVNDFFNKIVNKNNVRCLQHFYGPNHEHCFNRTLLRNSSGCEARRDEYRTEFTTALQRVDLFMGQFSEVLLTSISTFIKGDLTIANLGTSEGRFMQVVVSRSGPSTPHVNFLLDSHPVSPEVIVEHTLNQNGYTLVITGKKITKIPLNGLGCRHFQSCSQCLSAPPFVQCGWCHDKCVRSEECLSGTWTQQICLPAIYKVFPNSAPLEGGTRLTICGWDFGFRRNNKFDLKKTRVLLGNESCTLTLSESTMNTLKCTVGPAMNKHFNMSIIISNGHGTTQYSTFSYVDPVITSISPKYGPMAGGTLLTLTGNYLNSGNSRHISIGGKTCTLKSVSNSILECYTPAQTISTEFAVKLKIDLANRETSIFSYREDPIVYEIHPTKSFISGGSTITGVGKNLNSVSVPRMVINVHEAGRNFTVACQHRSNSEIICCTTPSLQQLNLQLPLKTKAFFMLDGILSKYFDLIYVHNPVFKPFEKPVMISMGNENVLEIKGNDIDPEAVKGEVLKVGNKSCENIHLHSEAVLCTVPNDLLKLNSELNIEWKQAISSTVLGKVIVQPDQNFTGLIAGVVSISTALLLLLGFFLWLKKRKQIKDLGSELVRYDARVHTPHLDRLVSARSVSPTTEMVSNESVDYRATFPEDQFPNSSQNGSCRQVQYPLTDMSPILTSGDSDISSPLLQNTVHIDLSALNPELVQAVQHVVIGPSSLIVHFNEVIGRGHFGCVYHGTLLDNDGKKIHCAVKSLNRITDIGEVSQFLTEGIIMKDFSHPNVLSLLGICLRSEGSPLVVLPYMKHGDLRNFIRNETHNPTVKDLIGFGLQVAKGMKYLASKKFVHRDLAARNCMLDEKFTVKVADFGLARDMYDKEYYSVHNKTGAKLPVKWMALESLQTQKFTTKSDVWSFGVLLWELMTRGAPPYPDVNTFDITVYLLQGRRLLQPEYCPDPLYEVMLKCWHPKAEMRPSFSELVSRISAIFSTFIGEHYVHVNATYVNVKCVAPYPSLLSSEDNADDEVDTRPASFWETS

[9] = biological target: MAP/microtubule affinity-regulating kinase 3 (Homo sapiens) (UniProt P27448); experiment: Inhibition of human full length c-TAK1 expressed in Escherichia coli cell assessed as substrate phosphorylation using fluorescence-labelled peptides as substrate at 95 uM after 90 mins by microfluidic peptide phosphorylation assay
Chain of MAP/microtubule affinity-regulating kinase 3 (Homo sapiens) (P27448 whole entry, looked up, the tested form may be a part): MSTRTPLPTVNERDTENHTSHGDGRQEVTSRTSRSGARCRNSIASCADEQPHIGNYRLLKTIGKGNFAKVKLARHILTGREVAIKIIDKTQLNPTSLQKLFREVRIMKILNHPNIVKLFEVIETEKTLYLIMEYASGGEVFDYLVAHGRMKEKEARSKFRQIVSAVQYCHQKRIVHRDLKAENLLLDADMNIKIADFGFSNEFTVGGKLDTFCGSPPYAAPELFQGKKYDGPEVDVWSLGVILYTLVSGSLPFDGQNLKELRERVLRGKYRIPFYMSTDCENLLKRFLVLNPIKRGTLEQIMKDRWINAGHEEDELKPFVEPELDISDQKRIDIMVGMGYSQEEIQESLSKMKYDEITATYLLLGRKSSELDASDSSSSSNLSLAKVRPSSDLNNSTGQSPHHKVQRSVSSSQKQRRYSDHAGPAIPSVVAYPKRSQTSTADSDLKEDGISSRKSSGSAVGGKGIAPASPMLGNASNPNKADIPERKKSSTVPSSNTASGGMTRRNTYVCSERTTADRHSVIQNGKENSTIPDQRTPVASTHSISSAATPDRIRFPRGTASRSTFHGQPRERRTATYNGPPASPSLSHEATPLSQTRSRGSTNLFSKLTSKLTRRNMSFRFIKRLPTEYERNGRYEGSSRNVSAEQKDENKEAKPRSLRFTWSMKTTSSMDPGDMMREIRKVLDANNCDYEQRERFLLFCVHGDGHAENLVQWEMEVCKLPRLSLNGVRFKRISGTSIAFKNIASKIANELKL

[10] = biological target: Receptor-type tyrosine-protein kinase FLT3 (Homo sapiens) (UniProt P36888); experiment: Inhibition of human FLT3 catalytic domain expressed in baculovirus assessed as substrate phosphorylation using fluorescence-labelled peptides as substrate at 8 uM after 90 mins by microfluidic peptide phosphorylation assay
Chain of Receptor-type tyrosine-protein kinase FLT3 (Homo sapiens) (P36888 whole entry, the tested form may be a part): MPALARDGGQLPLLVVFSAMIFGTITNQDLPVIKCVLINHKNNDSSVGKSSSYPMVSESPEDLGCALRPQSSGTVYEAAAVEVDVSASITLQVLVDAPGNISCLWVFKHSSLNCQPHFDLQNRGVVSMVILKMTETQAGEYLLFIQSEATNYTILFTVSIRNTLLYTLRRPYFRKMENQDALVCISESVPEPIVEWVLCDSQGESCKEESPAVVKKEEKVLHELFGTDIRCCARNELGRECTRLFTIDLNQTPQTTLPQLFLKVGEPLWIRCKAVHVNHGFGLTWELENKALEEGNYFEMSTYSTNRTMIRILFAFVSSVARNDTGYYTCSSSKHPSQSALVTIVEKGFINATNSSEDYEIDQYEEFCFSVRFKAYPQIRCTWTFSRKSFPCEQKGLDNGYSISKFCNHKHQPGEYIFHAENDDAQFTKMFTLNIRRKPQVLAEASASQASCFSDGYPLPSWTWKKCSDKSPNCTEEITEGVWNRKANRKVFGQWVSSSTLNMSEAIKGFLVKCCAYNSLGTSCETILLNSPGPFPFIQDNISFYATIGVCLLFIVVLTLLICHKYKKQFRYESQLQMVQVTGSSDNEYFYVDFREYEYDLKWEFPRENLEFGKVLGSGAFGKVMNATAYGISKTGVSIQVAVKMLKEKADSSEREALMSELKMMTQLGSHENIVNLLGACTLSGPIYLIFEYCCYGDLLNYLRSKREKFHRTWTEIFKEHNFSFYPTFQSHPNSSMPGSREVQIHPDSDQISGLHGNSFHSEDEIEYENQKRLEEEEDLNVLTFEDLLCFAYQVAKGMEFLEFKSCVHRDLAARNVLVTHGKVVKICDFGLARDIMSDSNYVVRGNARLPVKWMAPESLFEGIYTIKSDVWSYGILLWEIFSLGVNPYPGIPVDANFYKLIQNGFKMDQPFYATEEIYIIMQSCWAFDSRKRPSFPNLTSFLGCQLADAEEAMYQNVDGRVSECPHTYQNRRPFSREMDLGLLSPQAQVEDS

[11] = biological target: T4, Aurora kinase C (Homo sapiens) (UniProt Q9UQB9); experiment: Inhibition of human full length AurC expressed in baculovirus assessed as substrate phosphorylation using fluorescence-labelled peptides as substrate at 1000 uM after 90 mins by microfluidic peptide phosphorylation assay
T4 sequence (whole entry): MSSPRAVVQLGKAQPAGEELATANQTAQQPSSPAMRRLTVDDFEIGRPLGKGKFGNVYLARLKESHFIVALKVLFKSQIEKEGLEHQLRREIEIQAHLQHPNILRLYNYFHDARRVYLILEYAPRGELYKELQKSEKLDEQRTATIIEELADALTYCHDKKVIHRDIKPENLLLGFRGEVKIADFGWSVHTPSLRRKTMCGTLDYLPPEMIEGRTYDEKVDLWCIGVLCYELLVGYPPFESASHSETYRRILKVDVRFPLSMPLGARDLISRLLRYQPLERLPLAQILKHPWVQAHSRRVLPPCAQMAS

NC1(Cc2ccc(Cl)cc2)CCN(c2ncnc3[nH]ccc23)CC1
inhibition [1]: 3.5%

c1nc(N2CCOCC2)c2nc[nH]c2n1
inhibition [2]: 34% | inhibition [3]: 64%

NCC1CN(c2ncnc3[nH]c4cnccc4c23)CCO1 (stereo unspecified)
inhibition [4]: 81% | inhibition [5]: 83% | inhibition [6]: 10%

CNCc1ccc(-c2ncnc3[nH]cnc23)cc1
inhibition [7]: 35% | inhibition [8]: 0%

NCCc1ccc(-c2ncnc3[nH]cnc23)cc1
inhibition [9]: 18%

NCC1CCN(c2ncnc3[nH]ccc23)CC1
inhibition [10]: 0%

c1cnc2[nH]ccc2c1
inhibition [11]: 96%
